Structures are written as SMILES.

In one assay the test system is TF-1 cell. Kind of assay: TF-1 cell proliferation test. It is filed as cell-based. The following applies: Homo sapiens, 72 h. How it is done:
Inhibiting test of the compounds of the invention on proliferation of Blast T cell and TF-1 cell (American type culture collection) was carried out by the following method. The tested compounds […], and […] were dissolved in dimethyl sulfoxide from 0.0006 to 10 μM in quadruplicate dilutions. […] The luminescence value was read on Microplate Reader (Molecular Device). […] The IC50 values of the corresponding compounds were then obtained by fitting by using the XLFit fitting tool in excel.

For a further assay, the system named is Blast T cell. Kind of assay: Cell proliferation test of IL-2 stimulated Blast T cell. The conditions noted are these: Homo sapiens; IL-2 stimulated Blast T cell proliferation, 72 hours. It is filed as cell-based. How it is done: Inhibiting test of the compounds of the invention on proliferation of Blast T cell and TF-1 cell (American type culture collection) was carried out by the following method. The tested compounds […], and […] were dissolved in dimethyl sulfoxide from 0.0006 to 10 μM in quadruplicate dilutions. […] 10 μg/ml […] was added to stimulate and obtain cells with a density of 2×10^6/mL, which were incubated for 3 days. The cells were washed with phosphate buffer for three times and IL-2 (100 u/ml) was added to stimulate for 1 week. Cells were suspended using the culture medium and seeded at 5×10^4 cell/well density into 96-well plates, and incubated for 1 h with the prepared test compound or DMSO control at various concentrations from 0.0006 to 10 μM diluted by 4-fold volume. After incubation with 20 u/ml of IL-2 (50 μl/well without reference well) for 72 hours, Celltiter Glo® reagent (Promega, G7571) was added and mixed for 5 minutes, then incubated for 30 minutes at room temperature. The luminescence value was read on SpectraMax L (Molecular Device). […] The IC50 values of the corresponding compounds were then obtained by fitting by using the XLFit fitting tool in excel.

Another assay has as its system Sprague-Dawley (SD) mice. Kind of assay: Concanavalin-induced paw swelling in mice. It is filed as in vivo. The conditions noted are these: 10 mg/kg intragastric. How it is done:
The inhibiting effects of compounds H13, H14, H09, H11 and compounds of Example 12 on paw swelling in […] were determined after intragastric administration by using Sprague-Dawley (SD) […] (ShanghaiSippr-BK laboratory animal Co. Ltd.), aged 6-7 weeks and weighing 160-180 g as test animals. The anti-inflammatory pharmacodynamics characteristic of the compounds of the invention was discussed.
A certain amount of compounds were taken and dissolved in 4% Tween 80/0.5% hydroxy propyl methyl cellulose solution.
Mice were given compounds H01, H07, H11, H12, H14, H15, H22, H25, H29, H30, H33, H39, and H44 and the positive drug indomethacin (Diamond Reagent Co., Ltd., China) by intragastric administration at the dosages shown in the table below and 0.1 ml 0.03% (W/V) concanavalin was injected subcutaneously into the plantar 0.5 h later. A paw volume was measured with a paw swelling meter before modeling and 1 h, 2 h, 4 h and 6 h after modeling. According to the formula: paw swelling rate=(paw volume after administration−basic paw volume)/basic paw volume×100, the inhibiting effect of the compounds on paw volume was calculated. The basic paw volume was a paw volume before administration.

In another assay the test system is male ICR mice. Description: Carrageenan-induced paw swelling in mice. Format: in vivo. The conditions noted are these: 10 mg/kg intragastric. Here is the method: The inhibiting effects of compounds H01, H07, H11, H12, H14, H15, H22, H25, H29, H30, H33, H39 and H44 on paw swelling in mice were determined after intragastric administration by using male ICR mice (ShanghaiSippr-BK laboratory animal Co. Ltd.), aged 8 weeks and weighing 22-24 g as test animals. The anti-inflammatory pharmacodynamics characteristic of the compounds of the invention was discussed.
A certain amount of compounds were taken and dissolved in 4% Tween 80/0.5% hydroxy propyl methyl cellulose solution. A volume of intragastric administration in mice was 10 ml/kg.
Mice were given 10 mg/kg compounds H01, H07, H11, H12, H14, H15, H22, H25, H29, H30, H33, H39, and H44 and the positive drug indomethacin (Diamond Reagent Co., Ltd., China) by intragastric administration at the dosages shown in the table below and 20 μL 1% (W/V) carrageenan was injected subcutaneously into the plantar 0.5 h later. A paw volume was measured with a paw swelling meter before and at different time points after modeling (0.5 h, 1 h and 2 h). According to the formula: paw swelling rate=(paw volume after administration−basic paw volume)/basic paw volume×100, the inhibiting effect of the compounds on paw volume was calculated. The basic paw volume was a paw volume before administration.

For the next assay, the target named is JAK1 (Homo sapiens (Human), UniProt P23458). Kind of assay: JAK1 LANCE Ultra kinase assay. Format: biochemical. The conditions noted are these: for IC50: 38 uM ATP; for JAK2/JAK1: ratio of IC50 JAK2 to IC50 JAK1. How it is done: Inhibition test on activity of JAK kinase in vitro was carried out by the following methods.
JAK1 LANCE® Ultra assay, JAK2 LANCE® Ultra assay and JAK3 LANCE® Ultra assay were used to carry out the test separately, and kits of the above assays were supplied by PerkinElmer. […]
JAK1, JAK2 and JAK3 kinase, ATP and substrates were dissolved and diluted with buffers.
A test liquid was 2 nM Eu-W1024 anti-phosphotyrosine (PerkinElmer, AD0069). A stop buffer was 10 mM edetic acid (Intech, 1842C505).
2.5 μl of an 8-fold solution of the compound and 5 μl of a 4-fold solution of JAK1 or JAK2 or JAK3 kinase were added into a 384-well plate, respectively, and reacted for 10 minutes at room temperature. 2.5 μl of an 8-fold solution of ULight™-JAK-1 peptide/ATP was added and reacted for 90 minutes at room temperature. Finally, 5 μl of 4-fold edetic acid stop buffer and 5 μl of 4-fold test liquid of Eu-W1024 anti-phosphotyrosine were added and incubated for 60 minutes.
According to the formula: percentage of inhibition rate=(maximum value−transform value)/(maximum value−minimum value)×100, inhibition rate of each compound at various concentrations was calculated. The maximum value was the reference value of dimethyl sulfoxide added into the well plate, the minimum value was the blank value, and the transform value is the value obtained by the well of each compound. The IC50 values of the corresponding compounds were then obtained by fitting by using the XLFit fitting tool in excel.
Background: In TR-FRET formats the signal depends on donor and acceptor labels being close together.

The next assay concerns the target JAK2 (Homo sapiens (Human), UniProt O60674). Kind of assay: JAK2 LANCE Ultra kinase assay. It is filed as biochemical. The conditions noted are these: 12 uM ATP.
Another assay concerns the target JAK3 (Homo sapiens (Human), UniProt P52333). Kind of assay: JAK3 LANCE Ultra kinase assay. Format: biochemical. The conditions noted are these: 4 uM ATP.

Sequence of JAK2 (O60674 whole entry): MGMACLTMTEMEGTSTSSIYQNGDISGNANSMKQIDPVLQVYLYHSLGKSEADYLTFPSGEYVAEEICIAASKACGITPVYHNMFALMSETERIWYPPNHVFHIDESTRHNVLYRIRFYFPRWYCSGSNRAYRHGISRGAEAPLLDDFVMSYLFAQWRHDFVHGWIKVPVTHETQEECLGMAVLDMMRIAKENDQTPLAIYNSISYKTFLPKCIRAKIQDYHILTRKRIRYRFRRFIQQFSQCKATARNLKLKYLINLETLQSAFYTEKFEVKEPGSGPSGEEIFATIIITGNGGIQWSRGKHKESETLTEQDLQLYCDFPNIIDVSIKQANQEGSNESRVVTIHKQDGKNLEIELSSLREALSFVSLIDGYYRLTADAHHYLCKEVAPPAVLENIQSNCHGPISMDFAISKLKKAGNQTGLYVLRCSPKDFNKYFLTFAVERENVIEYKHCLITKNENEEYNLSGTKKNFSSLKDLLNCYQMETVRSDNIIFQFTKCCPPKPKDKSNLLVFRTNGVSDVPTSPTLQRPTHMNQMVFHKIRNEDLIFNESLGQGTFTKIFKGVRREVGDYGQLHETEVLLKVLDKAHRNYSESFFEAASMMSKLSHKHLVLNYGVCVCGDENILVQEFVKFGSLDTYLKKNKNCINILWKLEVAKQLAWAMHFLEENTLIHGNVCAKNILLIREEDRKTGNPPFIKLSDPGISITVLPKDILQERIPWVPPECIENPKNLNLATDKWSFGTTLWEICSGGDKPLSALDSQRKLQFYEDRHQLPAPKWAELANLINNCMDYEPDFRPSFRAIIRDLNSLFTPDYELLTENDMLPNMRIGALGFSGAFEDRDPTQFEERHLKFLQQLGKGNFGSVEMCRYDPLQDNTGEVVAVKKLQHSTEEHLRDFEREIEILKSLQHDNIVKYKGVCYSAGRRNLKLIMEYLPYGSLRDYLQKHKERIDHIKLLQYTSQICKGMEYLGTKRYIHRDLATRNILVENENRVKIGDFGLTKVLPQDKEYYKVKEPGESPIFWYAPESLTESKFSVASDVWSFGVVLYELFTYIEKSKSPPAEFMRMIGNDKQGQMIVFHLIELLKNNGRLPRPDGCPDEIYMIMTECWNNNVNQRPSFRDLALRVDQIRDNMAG
Sequence of JAK3 (P52333 whole entry): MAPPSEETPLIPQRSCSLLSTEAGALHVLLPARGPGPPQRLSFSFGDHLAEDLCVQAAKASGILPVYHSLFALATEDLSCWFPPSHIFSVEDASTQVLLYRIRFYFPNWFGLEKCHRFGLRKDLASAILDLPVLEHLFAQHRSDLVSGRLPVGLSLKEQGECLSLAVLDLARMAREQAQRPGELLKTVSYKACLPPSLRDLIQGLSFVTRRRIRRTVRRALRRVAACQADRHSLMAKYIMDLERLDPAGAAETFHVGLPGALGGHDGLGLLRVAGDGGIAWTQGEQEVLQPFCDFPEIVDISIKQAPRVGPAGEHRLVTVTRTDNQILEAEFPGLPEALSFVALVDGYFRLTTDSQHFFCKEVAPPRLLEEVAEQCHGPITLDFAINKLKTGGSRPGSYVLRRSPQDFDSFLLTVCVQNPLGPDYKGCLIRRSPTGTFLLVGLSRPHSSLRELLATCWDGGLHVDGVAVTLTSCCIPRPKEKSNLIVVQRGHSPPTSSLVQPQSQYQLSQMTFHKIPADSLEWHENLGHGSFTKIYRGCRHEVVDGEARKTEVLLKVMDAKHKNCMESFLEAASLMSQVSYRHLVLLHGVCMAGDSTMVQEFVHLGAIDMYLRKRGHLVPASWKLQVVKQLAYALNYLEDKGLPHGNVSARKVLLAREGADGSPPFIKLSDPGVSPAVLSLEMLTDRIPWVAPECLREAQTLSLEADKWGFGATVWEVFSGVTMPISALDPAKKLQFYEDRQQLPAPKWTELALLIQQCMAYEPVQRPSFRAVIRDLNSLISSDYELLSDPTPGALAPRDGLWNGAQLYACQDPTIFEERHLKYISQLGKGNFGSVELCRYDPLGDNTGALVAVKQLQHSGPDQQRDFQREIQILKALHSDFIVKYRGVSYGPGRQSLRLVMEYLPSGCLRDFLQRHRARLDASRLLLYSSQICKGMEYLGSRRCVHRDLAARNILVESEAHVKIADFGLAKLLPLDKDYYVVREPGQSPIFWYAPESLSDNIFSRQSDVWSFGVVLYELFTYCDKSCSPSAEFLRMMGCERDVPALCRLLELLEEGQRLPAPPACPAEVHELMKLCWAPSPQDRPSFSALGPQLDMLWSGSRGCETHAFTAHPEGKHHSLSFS
Sequence of JAK1 (P23458 whole entry): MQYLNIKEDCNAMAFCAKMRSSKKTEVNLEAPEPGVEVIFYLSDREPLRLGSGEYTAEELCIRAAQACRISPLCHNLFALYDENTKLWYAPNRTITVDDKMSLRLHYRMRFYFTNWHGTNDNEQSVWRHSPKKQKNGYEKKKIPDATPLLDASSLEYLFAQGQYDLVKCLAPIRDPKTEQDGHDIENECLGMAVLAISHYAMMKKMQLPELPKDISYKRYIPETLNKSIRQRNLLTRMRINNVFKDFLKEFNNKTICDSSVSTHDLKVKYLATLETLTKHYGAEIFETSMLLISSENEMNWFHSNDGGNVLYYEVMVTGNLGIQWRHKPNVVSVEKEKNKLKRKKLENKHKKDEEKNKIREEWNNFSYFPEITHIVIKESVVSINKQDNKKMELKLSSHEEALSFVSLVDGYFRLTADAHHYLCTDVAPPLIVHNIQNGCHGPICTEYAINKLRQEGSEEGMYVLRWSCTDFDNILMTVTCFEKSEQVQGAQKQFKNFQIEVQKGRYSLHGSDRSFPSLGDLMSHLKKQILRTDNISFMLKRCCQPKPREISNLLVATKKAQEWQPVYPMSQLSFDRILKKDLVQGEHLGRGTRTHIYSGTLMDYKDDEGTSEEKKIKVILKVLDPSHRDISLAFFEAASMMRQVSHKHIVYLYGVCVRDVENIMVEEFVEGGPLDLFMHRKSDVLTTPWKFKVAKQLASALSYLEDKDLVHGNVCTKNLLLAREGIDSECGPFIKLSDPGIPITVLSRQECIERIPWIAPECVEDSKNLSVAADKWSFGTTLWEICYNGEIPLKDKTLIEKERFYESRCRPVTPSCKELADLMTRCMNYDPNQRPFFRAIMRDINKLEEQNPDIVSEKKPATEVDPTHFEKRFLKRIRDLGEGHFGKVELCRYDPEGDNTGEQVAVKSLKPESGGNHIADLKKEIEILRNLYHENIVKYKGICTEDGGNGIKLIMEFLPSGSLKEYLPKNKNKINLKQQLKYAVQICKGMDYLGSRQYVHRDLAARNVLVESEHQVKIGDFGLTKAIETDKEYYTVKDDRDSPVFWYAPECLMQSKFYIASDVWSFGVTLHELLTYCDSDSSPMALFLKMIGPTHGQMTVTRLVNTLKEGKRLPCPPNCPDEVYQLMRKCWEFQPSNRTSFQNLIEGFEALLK

One may read the IC50 as the point on the concentration scale where inhibition reaches its midpoint. `CC[C@@H]1CC(NS(=O)(=O)c2cccc3nonc23)C[C@@H]1Nc1c(C#N)cnc2[nH]ccc12` (stereo partly shown) [Compound H58, N-(3-((5-cyano-1H-pyrrolo[2,3-b]pyridin-4-yl)amino)-4-ethylcyclopentyl)benzo[c][1,2,5] oxadiazole-4-sulfamide]: the IC50 with TF-1 cell worked out at 0.98 µM; in the assay on Blast T cell, 0.041 µM.

In the case of `COc1ccc2c(c1)c(CC(=O)O)c(C)n2C(=O)c1ccc(Cl)cc1` [Indomethacin, reference compound], the “Paw swelling rate_1 h (%)” value in the assay on Sprague-Dawley (SD) mice (1 h) amounted to 34.00 ± 2.30%; in the assay with male ICR mice (1 h), 42.21 ± 4.64%. For the same compound, the “Paw swelling rate_2 h (%)” value in the assay with Sprague-Dawley (SD) mice (2 h) amounted to 44.80 ± 3.00%; in the assay on male ICR mice (2 h), 55.10 ± 2.21%. For the same compound, the “Paw swelling rate_4 h (%)” value in the assay on Sprague-Dawley (SD) mice (4 h) is 42.70 ± 2.00%. For the same compound, the “Paw swelling rate_6 h (%)” value in the assay with Sprague-Dawley (SD) mice (6 h) turned out to be 36.20 ± 2.00%. For the same compound, the “Paw swelling_0.5 h (%)” value in the assay with male ICR mice (0.5 h) is on record as 32.91 ± 3.22%.

As for `CC[C@@H]1CN(C(=O)NCC(F)(F)F)CC1N(C)c1c(C#N)cnc2[nH]ccc12` (stereo partly shown) [Compound H02], the concentration for half-maximal inhibition (IC50) in the assay on TF-1 cell was determined as 1.34 µM; in the assay with Blast T cell, 0.48 µM.

As to `N#Cc1cnc2[nH]ccc2c1NC1CCN(S(=O)(=O)c2cccc(C(F)(F)F)c2)CC1` [Compound H34], the IC50 in the assay on TF-1 cell turned out to be 1.54 µM; in the assay on Blast T cell it was 0.044 µM.

In the case of `CN(c1c(C#N)cnc2[nH]ccc12)[C@H]1C[C@@H]2CN(S(=O)(=O)CCC(F)(F)F)C[C@@H]2C1` [Compound H27], the 50% inhibitory concentration (IC50) against JAK1 was determined as 5.6 nM; at JAK2, 33 nM; against JAK3 it was 171 nM. Further, the JAK2/JAK1 at JAK1 turned out to be 5.89.

Regarding `CNCC1CCN(S(=O)(=O)C[C@H]2CC[C@H](N(C)c3c(C#N)cnc4[nH]ccc34)CC2)C1` (stereo partly drawn) [Compound H67, 4-(methyl-(trans-4-(((3-((methylamino)methyl)pyrrolidin-1-yl)sulfonyl)methyl)cyclohexyl)amino)-1H-pyrrolo[2,3-b]pyridin-5-carbonitrile], the IC50 on JAK1 was 0.67 nM; against JAK2, 9.5 nM; on JAK3, 76 nM. In addition, the JAK2/JAK1 on JAK1 came to 14.18.

In the case of `CCC1CN(C(=O)CC#N)CC1Nc1c(C#N)cnc2[nH]ccc12` (stereo not shown) [Compound H78, 4-((4-ethyl-1-(2-cyanoacetyl)pyrrolidin-3-yl)amino)-1H-pyrrolo[2,3-b]pyridin-5-carbonitrile], the IC50 at JAK1 turned out to be 6 nM; against JAK2, 16 nM; against JAK3, 42 nM. In addition, at JAK1, the JAK2/JAK1 is reported as 2.67.

For `C[C@@H]1CN(C(=O)CC#N)C[C@@H]1N(C)c1c(C#N)cnc2[nH]ccc12` (relative stereo) [Compound H05, (cis)-4-{[4-methyl-1-(2-cyanoacetyl)pyrrolidin-3-yl]-methyl-amino}-1H-pyrrolo[2,3-b]pyridin-5-carbonitrile], the concentration for half-maximal inhibition (IC50) on JAK1 is 7.86 nM; at JAK2 it was 12.3 nM; on JAK3 it was 256 nM. Further, the JAK2/JAK1 on JAK1 turned out to be 1.56.

Turning to `COc1nsc(NC(=O)N2C[C@H]3C[C@H](Nc4c(C#N)cnc5[nH]ccc45)C[C@H]3C2)n1` [Compound H20, (3aR,5s,6aS)-5-((5-cyano-1H-pyrrolo[2,3-b]pyridin-4-yl)amino)-N-(3-methoxy-1,2,4-thiadiazole-5-yl)hexahydrocyclopentadiene[c]pyrrole-2(1H)-carboxamide], the IC50 stood at 5.8 nM at JAK1, 36 nM at JAK2 and 161 nM against JAK3.

With `CC(C)[C@@H]1CN(C(=O)NCC(F)(F)F)C[C@@H]1Nc1c(C#N)cnc2[nH]ccc12` (relative stereo) [Compound H73, (cis)-3-((5-cyano-1H-pyrrolo[2,3-b]pyridin-4-yl)amino)-4-isopropyl-N-(2,2,2-trifluoroethyl)pyrrolidin-1-carboxamide], the IC50 against JAK1 is 4.9 nM; at JAK2, 30 nM; on JAK3, 157 nM. Moreover, the JAK2/JAK1 at JAK1 amounted to 6.12.

As to `CC[C@@H]1CN(C(=O)NCC(C)(C)C)C[C@@H]1Nc1c(C#N)cnc2[nH]ccc12` (relative stereo) [Compound H86, (cis)-3-((5-cyano-1H-pyrrolo[2,3-b]pyridin-4-yl)amino)-4-ethyl-N-neopentyl-pyrrolidin-1-carboxamide], the IC50 against JAK1 was 1.41 nM; at JAK2, 29 nM; on JAK3 it was 169 nM. Moreover, the JAK2/JAK1 on JAK1 was found to be 20.57.

`CC[C@@H]1CN(C(=O)NCC#N)C[C@@H]1Nc1c(C(F)(F)F)cnc2[nH]ccc12` [Compound H93, (cis)-3-ethyl-N-(cyanmethyl)-4-((5-(trifluoromethyl)-1H-pyrrolo[2,3-b]pyridin-4-yl)amino)pyrrolidin-1-carboxamide]: the values for the IC50 against JAK1, on JAK2 and on JAK3 were 0.64 nM, 7.1 nM and 79 nM, respectively. The JAK2/JAK1 on JAK1 worked out at 11.09.

For the compound `N#Cc1cn2c(n1)CC(Nc1c(C#N)cnc3[nH]ccc13)CC2` (stereo not shown) [Compound H90, 7-((5-cyano-1H-pyrrolo[2,3-b]pyridin-4-yl)amino)-5,6,7,8-tetrahydroimidazo[1,2-a]pyridin-2-carbonitrile], the IC50 at JAK1 stood at 0.76 nM; against JAK2 it was 5.71 nM; at JAK3, 68 nM. For the same compound, at JAK1, the JAK2/JAK1 is recorded as 7.51.

On to `CC[C@@H]1CN(C(=O)NCC(C)C)C[C@@H]1Nc1c(C#N)cnc2[nH]ccc12` (relative stereo) [Compound H79, (cis)-3-((5-cyano-1H-pyrrolo[2,3-b]pyridin-4-yl)amino)-4-ethyl-N-isobutylpyrrolidin-1-carboxamide], for which the concentration for half-maximal inhibition (IC50) against JAK1 turned out to be 0.96 nM; against JAK2, 6.5 nM; on JAK3 it was 59 nM. At JAK1, the JAK2/JAK1 amounted to 6.77.

These data come from US12398141B2 (SHANGHAI SYNERGY PHARMACEUTICAL SCIENCES CO., LTD, priority 2019, dated 2025).
